We go through 1 compound from patent US8653026B2, “Treatment of type 2 diabetes with FTY720” (Diapin Therapeutics LLC, priority 2011, dated 2014).

The subject of one data set is Bcl-2. The experiment in a line: Bcl-2 mRNA levels in islets of db/db mice. The format is in vivo, mouse. Particulars: islets from FTY720-treated db/db mice vs untreated. On the procedure: FIG. 10A. Levels of Bcl-2 mRNA levels of the db/db mice with (+FTY720) or without FTY720 (−FTY720) treatment. *p=0.0006
Islets were isolated from pancreases removed from the 13-week-old untreated and FTY720-treated db/db mice by Liberase (Roche Diagnostics) digestion, followed by discontinuous Ficoll gradient separation and manual stereomicroscopic selection to exclude contaminating tissues (30). Isolated islets (or INS-1 cells) were cultured in the medium (composed of RPMI 1640 medium supplemented with 10% fetal bovine serum, 2 mM L-glutamine, 1% sodium pyruvate, 50 μM β-mercaptoethanol, 100 units/ml of penicillin, and 100 μg/ml of streptomycin). For treatment of INS-1 cells, the cells were plated in RPMI medium overnight and changed to Hanks' balanced salt solution containing 2 mM glucose and 0.5% FBS overnight. Then the cells were treated with various conditions in the same medium for 24 hours.
To determine the mechanism of action (MOA) behind the increase in beta-cell mass observed in the treated mice, beta-cell survival was examined.

Data set [1] can be described thus: Observation of cancer formation during the study. The format is in vivo, mouse. To be noted: during the course of this invention, 10 mg/kg. From the text:
There are several advantages of the present invention. First, FTY720 is a FDA approved medicine for the treatment of patients with relapsing multiple sclerosis (MS) and its safety profile has been well studied during the clinical trial for treatment of relapsing MS, including more than 4,500 patient years of experience, with some patients in their seventh year of treatment. Second, FTY720 is an orally taken therapy and easy to take by patients, compared with insulin and GLP-1 analog therapies that have to be injected into body either by healthcare professionals or by patients themselves. […] Finally, although FTY720 promotes beta-cell regeneration, the risk of tumorigenesis is low.

For a further data set, the system named is pancreatic cancer cells. To be noted: concentrations identical to this study (10 mg/kg), reportedly; cited from earlier work.
The next data set relates to db/db mice. Briefly: Intraperitoneal glucose tolerance test. It counts as in vivo, mouse. To be noted: db/db mice fasted 16 h, i.p. 10% glucose 1 mg/g; treated vs untreated. The method, then: FIG. 5A. Intraperitoneal glucose tolerance test (GTT). The mice of both groups were fasted for 16 hours and intraperitoneally injected with 10% glucose (1 mg/g body weight). Glucose levels were then measured after 0, 30, 60, 90, 120 min by a Glucometer Elite (Bayer Corp., Elkhart, Ind.). Open circle (∘), FTY720-untreated group; solid circle (●), FTY720-treated group. *p<0.01.
For the glucose tolerance test, the mice were fasted for 16 h and intraperitoneally injected with 10% glucose (1 mg/g of body weight). Glucose levels were then measured after 0, 30, 60, 90, and 120 min by a Glucometer Elite (Bayer Corp., Elkhart, Ind.) (29). For the insulin tolerance test, the mice were fasted for 6 h and injected intraperitoneally with human regular insulin (0.55 units/kg) (Sigma). Tail blood samples were collected at 0, 30, 40, 60, 90, and 120 min for glucose measurement (30, 31).

For a further data set, the system named is beta-cell. Briefly: In vivo BrdU incorporation (beta-cell regeneration) in pancreas. Further details: species or system mouse. The method, then:
FIG. 11. BrdU staining in the pancreatic islets after 6 weeks FTY720 treatment. After overnight fasting, the mice were given 1 mg/ml 5-bromo-2′deoxyuridine (BrdU) intraperitoneally. 24 hours later, mice were sacrificed for BrdU staining of pancreas sections. Positive BrdU staining indicates cell proliferation.
FIG. 12. BrdU staining in the duct areas of the pancreas. After 6 weeks FTY720 treatment, overnight fasted mice were given 1 mg/ml 5-bromo-2′deoxyuridine (BrdU) intraperitoneally. 24 hours later, mice were sacrificed for BrdU staining of pancreas sections.
FIG. 13. Insulin immunostaining in newly formed insulin containing cells and islets near duct (arrow) in the FTY720-treated db/db mice (Scale bar, 100 μm).
After overnight fasting, the mice were given 1 mg/ml of 5-bromo-2-deoxyuridine (BrdU) in PBS intraperitoneally. Mice were sacrificed 24 hours after BrdU injection and pancreases were removed and fixed with a 4% formaldehyde solution. The pancreases were then embedded in paraffin and sliced into 10 μm sections. Tissue sections were stained with the anti-BrdU monoclonal antibody provided in BrdU in Situ Detection Kit (BD Biosciences).
In general terms: Dividing cells build labelled thymidine or BrdU into new DNA.

[2] abbreviates: db/db mice after 6 weeks FTY720 treatment, no staining in untreated.

In the case of `CCCCCCCCc1ccc(CCC(N)(CO)CO)cc1` [FTY720, 2-amino-2-[2-(4-octylphenyl)ethyl]propane-1,3-diol], the “Bcl-2 mRNA levels” value in the data set on Bcl-2 is listed as “significantly increased”. In addition, in data set [1], the cancer formation result is on record as “no cancer formation was observed”. Besides, in the data set on pancreatic cancer cells, the “growth, migration, and invasion of pancreatic cancer cells” value is recorded as “inhibit”. In addition, in the data set on db/db mice, the glucose tolerance result is given as “significantly improved”. The “insulin-positive cells or small islets in the pancreatic duct area” value with beta-cell (FTY720-treated db/db mice, insulin immunostaining) is “identified”. In the data set on beta-cell (setting [2]), the “BrdU incorporation in the pancreatic duct area (beta-cell neogenesis)” value is on record as “BrdU incorporation was observed” and the “BrdU staining within the islets (beta-cell proliferation)” value is on record as “BrdU-positive cells were easily observed”.
